The values that follow come from patent publication US10590113B2, “6-hydroxy-4-oxo-1,4-dihydropyrimidine-5-carboxamides as APJ agonists” (priority 2016, dated 2020).

This test deals with T1, human APJ receptor (Homo sapiens, UniProt P35414).
T1 construct: expressed in transfected cells; host or cells: HEK293
T1 sequence (P35414 1-380): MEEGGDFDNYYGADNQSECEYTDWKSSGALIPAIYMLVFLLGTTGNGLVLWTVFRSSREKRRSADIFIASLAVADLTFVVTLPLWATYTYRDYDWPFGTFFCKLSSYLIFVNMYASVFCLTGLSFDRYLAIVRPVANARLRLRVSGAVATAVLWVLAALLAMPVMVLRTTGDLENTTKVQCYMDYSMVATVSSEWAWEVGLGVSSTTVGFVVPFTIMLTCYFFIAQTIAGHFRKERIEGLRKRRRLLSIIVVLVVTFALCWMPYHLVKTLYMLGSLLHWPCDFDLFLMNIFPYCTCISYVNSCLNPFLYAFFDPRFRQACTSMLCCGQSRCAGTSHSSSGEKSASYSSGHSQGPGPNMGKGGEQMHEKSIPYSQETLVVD
The test is described as follows: Intracellular cAMP Accumulation Assay (APJ hcAMP, HTRF). The class given is cell-based. Conditions: human APJ, cAMP accumulation; potency range class; read-out: hAPJ cAMP EC50 Potency range. Summed up:
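Stably transfected HEK293 cells (5,000/well) incubated 30 min at room temperature with serially diluted compound, […] and 2 μM forskolin. cAMP measured by HTRF after 60 min with detection reagents, quantified against a cAMP standard curve; EC50 from variable-slope sigmoidal fit of inhibition of forskolin-stimulated cAMP.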

Molecules are shown by their SMILES. pEC50: −log10 of the molar value.

`COc1cccc(OC)c1-n1c(-c2cccc(C)n2)nc(=O)c(C(=O)N2CCC(c3ccccc3F)C2)c1O` (single isomer, unassigned) [Example 236, 1-(2,6-dimethoxyphenyl)-5-[3-(2-fluorophenyl)pyrrolidine-1-carbonyl]-6-hydroxy-2-(6-methylpyridin-2-yl)-1,4-dihydropyrimidin-4-one]: the pEC50 (as a rule, −log10 of the EC50, conventionally taken in molar units) was 8.00 to 11.00.
With `COc1cccc(OC)c1-n1c(-c2cccc(Cl)c2)nc(=O)c(C(=O)N2CCC(c3ccccc3C#N)C2)c1O` (single isomer, unassigned) [Example 237, 2-{1-[2-(3-chlorophenyl)-1-(2,6-dimethoxyphenyl)-6-hydroxy-4-oxo-1,4-dihydropyrimidine-5-carbonyl]pyrrolidin-3-yl}benzonitrile], the negative-log EC50 (pEC50) was 8.00 to 11.00.
For the molecule `COc1cccc(OC)c1-n1c(-c2cccc(Cl)c2)nc(=O)c(C(=O)N2CCC(c3ncc(F)cc3F)C2)c1O` (single isomer, unassigned) [Example 238, 2-(3-chlorophenyl)-5-[3-(3,5-difluoropyridin-2-yl)pyrrolidine-1-carbonyl]-1-(2,6-dimethoxyphenyl)-6-hydroxy-1,4-dihydropyrimidin-4-one], the negative logarithm of the EC50 (pEC50) is 8.00 to 11.00.
`COc1cccc(OC)c1-n1c(-c2cc(C)ccn2)nc(=O)c(C(=O)N2CCC(c3ccccc3F)C2)c1O` (single isomer, unassigned) [Example 239, 1-(2,6-dimethoxyphenyl)-5-[3-(2-fluorophenyl)pyrrolidine-1-carbonyl]-6-hydroxy-2-(4-methylpyridin-2-yl)-1,4-dihydropyrimidin-4-one]: the pEC50 is 8.00 to 11.00.
Under `COc1cccc(OC)c1-n1c(-c2cccc(C)c2)nc(=O)c(C(=O)N2CCC(c3c(F)cccc3F)C2)c1O` (single isomer, unassigned) [Example 241, 5-[3-(2,6-difluorophenyl)pyrrolidine-1-carbonyl]-1-(2,6-dimethoxyphenyl)-6-hydroxy-2-(3-methylphenyl)-1,4-dihydropyrimidin-4-one] stands 8.00 to 11.00; under `COc1cccc(OC)c1-n1c(-c2cccc(C)c2)nc(=O)c(C(=O)N2CCC(c3ccccc3C#N)C2)c1O` (single isomer, unassigned) [Example 242, 2-{1-[1-(2,6-dimethoxyphenyl)-6-hydroxy-2-(3-methylphenyl)-4-oxo-1,4-dihydropyrimidine-5-carbonyl]pyrrolidin-3-yl}benzonitrile], 8.00 to 11.00.
Turning to `COc1cccc(OC)c1-n1c(-c2cncc(Cl)c2)nc(=O)c(C(=O)N2CCC(c3ccccc3C#N)C2)c1O` (single isomer, unassigned) [Example 243, 2-{1-[2-(5-chloropyridin-3-yl)-1-(2,6-dimethoxyphenyl)-6-hydroxy-4-oxo-1,4-dihydropyrimidine-5-carbonyl]pyrrolidin-3-yl}benzonitrile], the pEC50 is 8.00 to 11.00.
As for `COc1cccc(OC)c1-n1c(-c2cccc(C)c2)nc(=O)c(C(=O)N2CCC(c3ncc(F)cc3F)C2)c1O` (single isomer, unassigned) [Example 244, 5-[3-(3,5-difluoropyridin-2-yl)pyrrolidine-1-carbonyl]-1-(2,6-dimethoxyphenyl)-6-hydroxy-2-(3-methylphenyl)-1,4-dihydropyrimidin-4-one], the pEC50 was 8.00 to 11.00.
Under `COc1cccc(-c2nc(=O)c(C(=O)N3CCC(c4ncccc4F)C3)c(O)n2-c2c(OC)cccc2OC)c1` (single isomer, unassigned) [Example 245, 1-(2,6-dimethoxyphenyl)-5-[3-(3-fluoropyridin-2-yl)pyrrolidine-1-carbonyl]-6-hydroxy-2-(3-methoxyphenyl)-1,4-dihydropyrimidin-4-one] stands 8.00 to 11.00; under `COc1cccc(-c2nc(=O)c(C(=O)N3CCC(c4ncc(F)cc4F)C3)c(O)n2-c2c(OC)cccc2OC)c1` (single isomer, unassigned) [Example 246, 5-[3-(3,5-difluoropyridin-2-yl)pyrrolidine-1-carbonyl]-1-(2,6-dimethoxyphenyl)-6-hydroxy-2-(3-methoxyphenyl)-1,4-dihydropyrimidin-4-one], 8.00 to 11.00; under `COc1cccc(OC)c1-n1c(-c2cncc(Cl)c2)nc(=O)c(C(=O)N2CCC(c3c(F)cccc3F)C2)c1O` (single isomer, unassigned) [Example 247, 2-(5-chloropyridin-3-yl)-5-[3-(2,6-difluorophenyl)pyrrolidine-1-carbonyl]-1-(2,6-dimethoxyphenyl)-6-hydroxy-1,4-dihydropyrimidin-4-one], 8.00 to 11.00.
In the case of `COc1cccc(OC)c1-n1c(-c2cnn(C)c2)nc(=O)c(C(=O)N2CCC(c3c(F)cccc3F)C2)c1O` (single isomer, unassigned) [Example 249, 5-[3-(2,6-difluorophenyl)pyrrolidine-1-carbonyl]-1-(2,6-dimethoxyphenyl)-6-hydroxy-2-(1-methyl-1H-pyrazol-4-yl)-1,4-dihydropyrimidin-4-one], the negative logarithm of the EC50 (pEC50) was 8.00 to 11.00.
Take `COc1cccc(OC)c1-n1c(-c2ccn(C)n2)nc(=O)c(C(=O)N2CCC(c3c(F)cccc3F)C2)c1O` (single isomer, unassigned) [Example 251, 5-[3-(2,6-difluorophenyl)pyrrolidine-1-carbonyl]-1-(2,6-dimethoxyphenyl)-6-hydroxy-2-(1-methyl-1H-pyrazol-3-yl)-1,4-dihydropyrimidin-4-one]: the negative-log EC50 (pEC50) was 8.00 to 11.00.
As to `COc1cccc(OC)c1-n1c(-c2ccc(C)nc2)nc(=O)c(C(=O)N2CCC(c3c(F)cccc3F)C2)c1O` (single isomer, unassigned) [Example 252, 5-[3-(2,6-difluorophenyl)pyrrolidine-1-carbonyl]-1-(2,6-dimethoxyphenyl)-6-hydroxy-2-(6-methylpyridin-3-yl)-1,4-dihydropyrimidin-4-one], the negative-log EC50 (pEC50) was 8.00 to 11.00.
With `COc1cccc(OC)c1-n1c(-c2ccnc(C)c2)nc(=O)c(C(=O)N2CCC(c3ccc(F)cc3F)C2)c1O` (single isomer, unassigned) [Example 254, 5-[3-(2,4-difluorophenyl)pyrrolidine-1-carbonyl]-1-(2,6-dimethoxyphenyl)-6-hydroxy-2-(2-methylpyridin-4-yl)-1,4-dihydropyrimidin-4-one], the negative logarithm of the EC50 (pEC50) is 8.00 to 11.00.
Consider `COc1cccc(OC)c1-n1c(-c2ccc(F)c(C)c2)nc(=O)c(C(=O)N2CCC(c3ncccc3F)C2)c1O` (single isomer, unassigned) [Example 255, 1-(2,6-dimethoxyphenyl)-2-(4-fluoro-3-methylphenyl)-5-[3-(3-fluoropyridin-2-yl)pyrrolidine-1-carbonyl]-6-hydroxy-1,4-dihydropyrimidin-4-one], for which the negative logarithm of the EC50 (pEC50) is 8.00 to 11.00.
In the case of `COc1cccc(OC)c1-n1c(-c2ccc(F)c(C)c2)nc(=O)c(C(=O)N2CCC(c3ncc(F)cc3F)C2)c1O` (single isomer, unassigned) [Example 256, 5-[3-(3,5-difluoropyridin-2-yl)pyrrolidine-1-carbonyl]-1-(2,6-dimethoxyphenyl)-2-(4-fluoro-3-methylphenyl)-6-hydroxy-1,4-dihydropyrimidin-4-one], the pEC50 was 8.00 to 11.00.
Consider `COc1cccc(OC)c1-n1c(-c2ccnc(C)c2)nc(=O)c(C(=O)N2CCC(c3c(F)cccc3F)C2)c1O` (single isomer, unassigned) [Example 257, 5-[3-(2,6-difluorophenyl)pyrrolidine-1-carbonyl]-1-(2,6-dimethoxyphenyl)-6-hydroxy-2-(2-methylpyridin-4-yl)-1,4-dihydropyrimidin-4-one], for which the negative-log EC50 (pEC50) is 8.00 to 11.00.
Take `COc1cccc(OC)c1-n1c(-c2ccn(C)n2)nc(=O)c(C(=O)N2CCC(c3ncc(Cl)cc3F)C2)c1O` (single isomer, unassigned) [Example 259, 5-[3-(5-chloro-3-fluoropyridin-2-yl)pyrrolidine-1-carbonyl]-1-(2,6-dimethoxyphenyl)-6-hydroxy-2-(1-methyl-1H-pyrazol-3-yl)-1,4-dihydropyrimidin-4-one]: the negative-log EC50 (pEC50) is 8.00 to 11.00.
For `COc1cccc(OC)c1-n1c(-c2cncc(Cl)c2)nc(=O)c(C(=O)N2CCC(c3ccc(F)cc3F)C2)c1O` (single isomer, unassigned) [Example 260, 2-(5-chloropyridin-3-yl)-5-[3-(2,4-difluorophenyl)pyrrolidine-1-carbonyl]-1-(2,6-dimethoxyphenyl)-6-hydroxy-1,4-dihydropyrimidin-4-one], the pEC50 is 8.00 to 11.00.
The value for `COc1cccc(-c2nc(=O)c(C(=O)N3CCC(c4ncc(Cl)cc4F)C3)c(O)n2-c2c(OC)cccc2OC)c1` (single isomer, unassigned) [Example 261, 5-[3-(5-chloro-3-fluoropyridin-2-yl)pyrrolidine-1-carbonyl]-1-(2,6-dimethoxyphenyl)-6-hydroxy-2-(3-methoxyphenyl)-1,4-dihydropyrimidin-4-one] was 8.00 to 11.00; that for `COc1cccc(OC)c1-n1c(-c2cc(C)ccn2)nc(=O)c(C(=O)N2CCC(c3ccc(F)cc3F)C2)c1O` (single isomer, unassigned) [Example 262, 5-[3-(2,4-difluorophenyl)pyrrolidine-1-carbonyl]-1-(2,6-dimethoxyphenyl)-6-hydroxy-2-(4-methylpyridin-2-yl)-1,4-dihydropyrimidin-4-one] was 8.00 to 11.00.
